Measured values: US12492195B2, “Preparation method for and crystal form of 3-aryloxy-3-five-membered heteroaryl-propylamine compound” (Zhangzhou Pien Tze Huang Pharmaceutical Co., Ltd., priority 2020, dated 2025)

How the values were obtained:
[1] = Pharmacokinetic test in rat; type: in vivo; conditions: PO 10 mg/kg
Protocol: A certain amount of sample was weighed and dissolved in deionized water to prepare 1 mg/mL of solution. Male SD rats were used as test animals. The dose of single intravenous (IV) injection was 2 mg/kg, and the dose of oral (PO) administration was 10 mg/kg. Each group had three rats. The rats in oral group were fasted for 10-14 hours before administration, and were fed 4 hours after administration. Blood collection time points of animals were before administration, and 5 min, 15 min, 30 min, 1 h, 2 h, 4 h, 6 h, 8 h, and 24 h after administration for intravenous administration; before administration, and 15 min, 30 min, 1 h, 2 h, 4 h, 6 h, 8 h and 24 h after administration for oral administration. About 0.25 mL of blood was collected via the jugular vein from each animal, and heparin sodium was used for anticoagulation. After collecting the blood samples, the blood samples were placed on ice and centrifuged to separate the plasma (centrifugation conditions: 8000 rpm, 6 min, 4° C.). The collected plasma was stored at −80° C. before analysis. 50 μL of plasma sample was taken into 1.5 mL centrifuge tube, 250 μL of internal standard solution was added, and the same volume of methanol rather than internal standard solution was added in the blank group. […]

SD rats = assay: SNL model in rats, mechanical hyperalgesia test; type: in vivo; conditions: 10 mg/kg by gavage, 1 hour after administration
Protocol: Male SPF grade SD rats, weighed 150-180 g, were selected. Aseptic operation during surgery was performed. The animals were anesthetized with sodium pentobarbital (50 mg/kg, intraperitoneal injection). The surgical area of animal waist was shaved and the skin was disinfected three times with iodophor and 70% ethanol. After the skin was dried, the operation was started. Surgical knife was used to make a longitudinal incision at the back of the sacrum of the animal waist to expose the left paraspinal muscles, and distractor was used to separate muscle tissue to expose the spine. The left spinal nerves L5 and L6 were separated and ligated with a 6-0 silk thread, and the wound was sutured. […]
The animals were weighed to calculate the dosage. […] During the test, rapid paw withdrawal of animal was recorded as pain response. When the test fiber was removed from animal skin, the paw withdrawal of animal was also recorded as pain response. If animal moved or walked, the pain response was not recorded and the test was repeated. […]
Mechanical hyperalgesia was expressed as paw withdrawal threshold (PWT) in rat behavioral test, which was calculated with the following formula: 50% response threshold (g)=(10^(Xf+k))/10,000; • Xf=the final test fiber value used in the test; • k=table value; • =mean difference

## CNCC[C@H](Oc1cccc2ccccc12)c1cccs1 [Duloxetine (S configuration), Duloxetine, reference compound]
[1]
  Tmax: 50 min

## CNCC[C@H](Oc1cccc2ccoc12)c1cccs1 [IC-1, (S)-3-(Benzofuran-7-yloxy)-N-methyl-3-(thiophen-2-yl)propan-1-amine]
SD rats
  PWT: 7.869 ± 2.846 g
